Experimental data: patent publication US12390439B2, “Oral liquid formulation of methocarbamol” (Liqmeds Worldwide Limited, priority 2023, dated 2025)
In brackets after ≈: the same amount, converted by molar mass.

Assays:
Assay type in all cases: physicochemical
[1] = Photostability study of formulation B3
[2] = Drug-excipient compatibility study: related substance; settings: higher temperature conditions
Procedure: Accurately weighed quantity of methocarbamol, and individual excipients were mixed as per ratio mentioned in the drug-excipient compatibility table. Mixtures were filled in glass vials, plugged using LDPE plugs which were manually punctured.
Filled glass vials were exposed to temperature and humidity conditions i.e. 60° C.±2° C., and 40° C.±2° C./75±5% RH for 4 weeks.

[3] = Solubility of methocarbamol in different vehicles at various pH conditions
Procedure: Solubility of Methocarbamol was carried out in different vehicles at various pH conditions, and the results are presented in Table 1.

[4] = API in Protected Condition (Control)

Assay (%) [1, 4]: 99.2%
Related Substances: Guaifenesin [1, 4]: 0.01%
Related Substances: Methocarbamol Isomer [1, 4]: 0.01%
Related Substances: Total Impurities [1, 4]: 0.02%
Assay (%) ([1]; API in open Exposed Condition): 99.8%
Related Substances: Guaifenesin ([1]; API in open Exposed Condition): 0.01%
Related Substances: Methocarbamol Isomer ([1]; API in open Exposed Condition): 0.02%
Related Substances: Total Impurities ([1]; API in open Exposed Condition): 0.03%
Assay (%) ([1]; API, Initial): 99.3%
Related Substances: Guaifenesin ([1]; API, Initial): 0.03%
Related Substances: Total Impurities ([1]; API, Initial): 0.03%
Description ([1]; Methocarbamol API (Batch no: A), Initial, open Exposed Condition and Protected Condition (Control)): White Bulky Powder odorless
Stability of methocarbamol in aqueous phase [2]: probable instability
Vol. req. to dissolve 1500 mg API ([3]; 0.1N HCl): 100.00 mL
solubility ([3]; 0.1N HCl, simulated gastric fluid): 15.5 mg/mL (≈ 64.1 mM)
Vol. req. to dissolve 1500 mg API ([3]; Purified water): 98.02 mL
Solubility (conclusion) ([3]; all pH media): high solubility
solubility ([3]; aqueous buffer, pH 4.5 acetate buffer): 16.9 mg/mL (≈ 69.9 mM)
solubility ([3]; aqueous buffer, pH 6.8 phosphate buffer): 14.1 mg/mL (≈ 58.4 mM)
solubility ([3]; aqueous buffer, pH 7.2 phosphate buffer): 13.6 mg/mL (≈ 56.5 mM)
Vol. req. to dissolve 1500 mg API ([3]; pH 4.5 acetate buffer): 88.96 mL
Vol. req. to dissolve 1500 mg API ([3]; pH 6.8 phosphate buffer): 106.38 mL
Vol. req. to dissolve 1500 mg API ([3]; pH 7.2 phosphate buffer): 109.96 mL
solubility ([3]; purified water, water): 15.3 mg/mL (≈ 63.4 mM)
Structure (SMILES): COc1ccccc1OCC(O)COC(N)=O (stereo not drawn) [methocarbamol]
